{"source": "paper PMC9618446", "about": "(Biomedicine & Pharmacotherapy, 2022)", "assay_type_in_all_cases": "cell-based", "key": {"[1]": {"system": "SARS-CoV-2 S protein variant D614G PsV", "details": "read-out: IC50 against SARS-CoV-2 S variant PsV D614G"}, "[2]": {"system": "SARS-CoV-2 S protein variant P681H PsV", "details": "read-out: IC50 against SARS-CoV-2 S variant PsV P681H"}, "[3]": {"system": "SARS-CoV-2 S protein variant N501Y PsV", "details": "read-out: IC50 against SARS-CoV-2 S variant PsV N501Y"}}, "data": [{"smiles": "COc1c(O)cc2oc(-c3ccccc3)cc(=O)c2c1O", "note": "[OA, Oroxylin A]", "values": [{"measurement": "IC50", "setting": "[1]", "value": "18.1 ± 0.67", "unit": "µM"}, {"measurement": "IC50", "setting": "[2]", "value": "19.6 ± 2.39", "unit": "µM"}, {"measurement": "IC50", "setting": "[3]", "value": "13.6 ± 1.24", "unit": "µM"}]}]}
